Experimental data as given in the CheMixHub viscosity set.

Assay: xn = mol fraction of the nth substance listed

ClC=C(Cl)Cl + ClC(Cl)(Cl)Cl
303.15 K, 101.33 kPa
Conditions | viscosity [mPa·s]
x1 = 0.2969 | 0.699
x1 = 0.7481 | 0.555
x1 = 0.7605 | 0.551
x1 = 0.8498 | 0.539
x1 = 0.9286 | 0.526

CC(O)CO (stereo not drawn) + CO
viscosity [mPa·s], 101 kPa
Conditions | x1 = 0.1 | x1 = 0.2 | x1 = 0.3 | x1 = 0.4 | x1 = 0.5 | x1 = 0.6 | x1 = 0.7 | x1 = 0.8 | x1 = 0.9
298.15 K | 0.8967 | 1.436 | 2.244 | 3.432 | 5.254 | 7.972 | 12.13 | 18.51 | 28.39
308.15 K | 0.7629 | 1.187 | 1.814 | 2.731 | 4.083 | 6.016 | 8.726 | 12.53 | 17.88
318.15 K | 0.6278 | 0.9689 | 1.457 | 2.129 | 3.054 | 4.33 | 6.037 | 8.242 | 11.2

CC(O)CO (stereo not drawn) + CC(=O)N(C)C
viscosity [mPa·s], 101 kPa
Conditions | x2 = 0.0807 | x2 = 0.0999 | x2 = 0.2 | x2 = 0.2994 | x2 = 0.4014 | x2 = 0.4996 | x2 = 0.6 | x2 = 0.6954 | x2 = 0.7937 | x2 = 0.8997
293.15 K | 36.91 | 33.19 | 19.06 | 11.57 | 7.324 | 4.919 | 3.403 | 2.466 | 1.827 | 1.349
303.15 K | 21.61 | 19.64 | 12.06 | 7.768 | 5.202 | 3.659 | 2.637 | 1.987 | 1.512 | 1.151
313.15 K | 13.49 | 12.39 | 8.071 | 5.477 | 3.845 | 2.819 | 2.108 | 1.634 | 1.277 | 1
323.15 K | 8.96 | 8.317 | 5.673 | 4.023 | 2.939 | 2.229 | 1.718 | 1.368 | 1.097 | 0.879

CC(O)CO (stereo not drawn) + OCCO
viscosity [mPa·s], 101 kPa
Conditions | x2 = 0.1212 | x2 = 0.2346 | x2 = 0.3459 | x2 = 0.4339 | x2 = 0.5501 | x2 = 0.631 | x2 = 0.7481 | x2 = 0.8299 | x2 = 0.9064
298.15 K | 41.61 | 38.96 | 36.05 | 33.67 | 30.55 | 28.37 | 25.1 | 22.65 | 20.25
303.15 K | 32.39 | 30.43 | 28.19 | 26.35 | 23.95 | 22.28 | 19.75 | 17.84 | 15.99
308.15 K | 24.28 | 22.97 | 21.42 | 20.15 | 18.48 | 17.31 | 15.55 | 14.2 | 12.9

ClC=C(Cl)Cl + CCCO
viscosity [mPa·s]
Conditions | x1 = 0.0848 | x1 = 0.1725 | x2 = 0.024 | x2 = 0.1062 | x2 = 0.253 | x2 = 0.3927 | x2 = 0.5454 | x2 = 0.6998 | x2 = 0.9543
298.15 K, 101.3 kPa | 1.705 | 1.485 | – | – | – | – | – | – | –
303.15 K, 101 kPa | – | – | 0.598 | 0.692 | 0.86 | 1.019 | 1.193 | 1.37 | 1.537
313.15 K, 101 kPa | – | – | 0.55 | 0.617 | 0.735 | 0.848 | 0.97 | 1.095 | 1.219
323.15 K, 101 kPa | – | – | 0.487 | 0.539 | 0.634 | 0.722 | 0.82 | 0.919 | 1.018

C1COCCN1 + O
293.15 K, 101 kPa
Conditions | viscosity [mPa·s]
x1 = 0.01898 | 1.327
x1 = 0.04739 | 1.963
x1 = 0.08285 | 3.082
x1 = 0.1083 | 4.064
x1 = 0.1739 | 7.227
x1 = 0.2362 | 10.22
x1 = 0.2817 | 11.61
x1 = 0.3018 | 11.87
x1 = 0.3247 | 12.17
x1 = 0.3476 | 12.13
x1 = 0.3543 | 12.09
x1 = 0.4548 | 10.43
x1 = 0.68 | 5.954

NC1CCCCC1 + CC(C)CO
Conditions | viscosity [mPa·s]
293.15 K, 100 kPa, x2 = 0.1205 | 2.575
298.15 K, 101 kPa, x1 = 0.0767 | 3.274
298.15 K, 101 kPa, x1 = 0.1574 | 3.183
298.15 K, 101 kPa, x1 = 0.3325 | 3.067
298.15 K, 101 kPa, x1 = 0.4277 | 2.976
298.15 K, 101 kPa, x1 = 0.5285 | 2.859
298.15 K, 101 kPa, x1 = 0.6355 | 2.681
298.15 K, 101 kPa, x1 = 0.7493 | 2.447
298.15 K, 101 kPa, x1 = 0.8706 | 2.165
308.15 K, 100 kPa, x2 = 0.6492 | 2.275

ClC=C(Cl)Cl + CO
viscosity [mPa·s], 101 kPa
Conditions | 293.15 K | 303.15 K | 313.15 K | 323.15 K
x2 = 0.017 | 0.554 | 0.507 | 0.466 | 0.429
x2 = 0.057 | 0.56 | 0.509 | 0.466 | 0.427
x2 = 0.152 | 0.58 | 0.523 | 0.476 | 0.435
x2 = 0.1523 | – | 0.56 | 0.524 | 0.473
x2 = 0.286 | 0.605 | 0.541 | 0.485 | 0.441
x2 = 0.3071 | – | 0.55 | 0.518 | 0.4735
x2 = 0.446 | – | 0.54 | 0.511 | 0.473
x2 = 0.562 | 0.656 | 0.576 | 0.508 | 0.452
x2 = 0.5963 | – | 0.53 | 0.505 | 0.474
x2 = 0.6 | 0.667 | 0.581 | 0.513 | 0.455
x2 = 0.699 | 0.674 | 0.59 | 0.519 | 0.461
x2 = 0.72 | 0.67 | 0.587 | 0.517 | 0.458
x2 = 0.756 | – | 0.518 | 0.497 | 0.475
x2 = 0.78 | 0.663 | 0.578 | 0.508 | 0.45
x2 = 0.9011 | – | 0.508 | 0.492 | 0.476
x2 = 0.92 | 0.62 | 0.543 | 0.477 | 0.423
